# According to patent US11672786B2, “Methods of treating diseases associated with repeat instability” (The Hospital for Sick Children, priority 2016, dated 2023):
# Legend:
# [1] = system: Huntington's disease R6/2 transgenic mice, striatum; experiment: stereotaxic intra-striatal injections into R6/2 mice, CAG length Genescan analysis and instability index; type: in vivo, mouse
# Description: This calculation corrects background using a relative height threshold and normalizes data efficiently, generating an “instability index” that represents the mean CAG length change from the main allele per cell in a population of cells: greater indices reflect greater expansions, lower indices-lower expansions.
# Mouse handling and experimental procedures were conducted in accordance with the Osaka University guidelines for the welfare of animals. A single drug application involved six separate stereotactic injections, three injections of drug or saline into three different striatal regions of either the left or right striatum, respectively (outlined in FIG. 24). Under sterile conditions, 6-week-old R6/2 mice were anesthetized with 50 mg/kg pentobarbital sodium, and stereotaxically injected with 5 μl of saline (right side) or 500 μM NA dissolved in saline (left side) into three different sites of the striatum. The mice received injections once or twice bi-weekly, or weekly for 4 consecutive weeks. Stereotaxic injections were delivered to three sites within the striatum with the following coordinates: (anterior-posterior (AP)=0.0 mm, medial-lateral (ML)=1.5 mm from bregma, dorsal-ventral (DV)=2.5 mm below the dural surface; AP=1.0 mm, ML=1.5 mm, DV=2.5 mm; and AP=0.5 mm, ML=1.5 mm, DV=2.5 mm), using a 10-μl Hamilton microsyringe at a rate of 0.5 μL/min. Refer to FIG. 24 outlining dosing regimen. […] The control of our NA treatment is therefore the contralateral side of the striatum of each mouse. Both right and left striatum were assessed for repeat length at the HD CAG transgene and at endogenous, long CAG tracts. For the mice treated four times, DNAs from the tail prior to and following NA administration, as well as left and right frontal cortex and left and right cerebellum were harvested.
# At 4 weeks after the first injection, DNA was isolated from mouse brain tissue as previously described (Nakamori et al. 2009, Neuromuscul. Disord., 19:759-62). PCR was performed as described previously (Tome et al., 2013, PLoS Genet., 9:e1003280), and PCR products were sized on an ABI310 Gene Analyser using […] 3.1 software (Life Technologies).
# The procedure for instability index calculation was done as previously described (Lee et al., 2010, BMC Syst. Biol., 4:29) and is illustrated and outlined in FIG. 27A.
# [2] = system: fully-duplexed (CAG)50●(CTG)50; experiment: band-shift NA-DNA binding, fully-duplexed repeat; set-up: species or system human; details: NA 0.15-50 μM, 4% polyacrylamide gel
# From the text: FIG. 2 are the results of experiments showing that NA binds to long CAG slip-outs. […] The (CAG)n DNA sequence (left) can fold into an hairpin structure involving mismatched A-A pair flanking C-G base pairs (middle). NA molecules can intercalate into the DNA helix, with the 2-amino-1,8-naphthyridine moiety (in red) hydrogen bonding to guanine and 8-azaquinolone moiety (in blue) hydrogen bonding to adenine. […] Long slip-outs extruded as a single slip-out from a fully base-paired backbone of (CTG)n●(CAG)n, as described (Pearson et al., 2002, Nuc. Acids Res., 30:4534-47). DNAs were mixed with increasing concentrations of NA (0.15 μM, 0.75 μM, 7.5 μM and 50 μM) and resolved on 4% polyacrylamide gels. All lanes are from the same gel, and they were separated for clarity. NA-DNA complexes are shown by brackets, free DNA is indicated by arrowheads. […] The relative migration was measured for the linear and the three slip-outs substrates as the ratio of the migration distance of each NA-DNA complex to the migration distance of the free DNA. The migration distance was measured from the well to a consistent center point of each band. […]
# [3] = system: Mapkap1 and Fgd4 loci in striatum from R6/2 mouse; experiment: repeat-tract lengths of non-expanded loci in R6/2 striatum; type: in vivo; details: four injections, both sides of striatum
# r(CAG)9 = r(CAG)9 immobilization 524 RU; cited from earlier work
substance,measurement,setting,value
naphthyridine-azaquinolone,instability index of striatum,"[1]; 1, 2 and 4 administrations",progressively reduced
same,effect on expanded repeat relative to saline-injected contralateral striatum,"[1]; 6-week-old R6/2 mice, repeated intra-striatal injections over four weeks",led to seeming contractions of the expanded repeat
same,extrapolated repeat contraction in an HD-affected human,"[1]; extrapolation from mice, treatments spanning one year",5-25 repeats
same,difference of main peak CAG lengths saline- versus NA-treated versus tail,"[1]; four injections, 500 μM NA intra-striatal",4-7 CAG units
same,CAG length heterogeneity in cerebral cortex and cerebellum (non-injected tissues),"[1]; intra-striatal injections, left versus right side",identical patterns of CAG length heterogeneity in the right and left sides
same,rate of contractions in striatal neurons,"[1]; mice with about 150 CAG repeats, four-week period of NA treatment, 500 μM intra-striatal",~0.5 repeats lost/week
same,NA binding (band-shift),[2],did not bind
same,length variation at Mapkap1 and Fgd4 loci,[3],Length variation was not observed
same,changes in the SPR intensity on NA binding,r(CAG)9,8 RU
